This note sets out measurements from US20190231761A1, “COMPOSITIONS AND METHODS FOR TARGETING FRUCTOSE ENZYMES AND TRANSPORTERS FOR THE TREATMENT OF CANCER” (Duke University, priority 2018, published 2019).

For one series, the system named is LV-HCT116 cells. Kind of series: intravenous injection of liver-derived HCT116 (LV-HCT116), tumors in the liver. The following applies: 5-Fluorouracil 100 mg/kg, Oxaliplatin 6 mg/kg, intraperitoneal twice a week; compared with ALDOB knockdown or fructose-restricted diet. The series is classed as in vivo, NOD/SCID mice. From the text: FIG. 41A is representative IVIS luciferase in vivo images of mice with intravenous injection of liver-derived HCT116 cells with or without ALDOB knockdown. FIG. 41B are bright field and fluorescent (mCherry) images of livers of mice with intravenous injection of liver-derived HCT116 cells with or without ALDOB knockdown. FIG. 41C is a graph showing quantification of liver metastasis of mice with intravenous injection of liver-derived HCT116 cells with or without ALDOB knockdown, and show knockdown of ALDOB suppressed CRC liver lesions. FIG. 41D are representative IVIS luciferase in vivo images of mice with intravenous injection of liver-derived HCT116 with fructose diet. FIG. 41E are bright field and fluorescent (mCherry) images of livers of mice with intravenous injection of liver-derived HCT116 with fructose diet. FIG. 41F is a graph of quantification of liver metastasis of mice with intravenous injection of liver-derived HCT116 with fructose diet that show mice fed with fructose-restricted diet suppressed liver lesions. […] FIG. 41I is a graph showing quantification of liver lesions. […] Error bars denote SEM of 3 mice per group. **, p<0.01; ***, p<0.001. p-value was calculated based on one-way ANOVA. […]

The test system of a further series is CRC57 cells. Kind of series: cecum injection model, CRC liver metastasis, CRC57 cells with ALDOB knockdown. Type of series: in vivo, NOD/SCID mice. The following applies: cecum-injected CRC57 cells with ALDOB knockdown; control vectors 5 out of 5 mice. Here is the method: (§1) Tumor-bearing mice were treated with 5-Fluorouracil (Sigma, St. Louis, Mo.) at a dose of 100 mg/kg, Oxaliplatin (Sigma, St. Louis, Mo.) at a dose of 6 mg/kg, 2-deoxyglucose (Sigma, St. Louis, Mo.) at a dose of 500 mg/kg or normal saline as vehicle control through intraperitoneal route twice a week. 2×10^6 cells carrying a luciferase/mCherry or luciferase/GFP vector were injected into the mice for cecum injection model and intrahepatic injection model. 5×10^5 cells were injected for intravenous injection. Luciferase signal was tracked in vivo using the IVIS luciferase imaging system 200 (Xenogen) for tumor development. Liver metastases were evaluated based on mCherry signals by an OV100 microscope (Olympus) after scarifying the mice.
(§2) To assess the contribution of ALDOB to fructose metabolism, ALDOB was knocked down in CRC cells using two shRNAs and validated the knockdown efficiencies by Western blot (FIG. 23). ALDOB lentiviral shRNA constructs were purchased from Sigma Mission shRNA dataset. The lentiviral vectors were co-transfected with helper plasmids into 293T cells. The lentiviral vectors were transfected into 293T cells. The viral supernatant was collected 48 hours after transfection and was used to infect CRC cells. […]

Another series relates to CRC119 cells. Kind of series: cecum injection model, CRC liver metastasis, CRC119 cells with ALDOB knockdown. The series is classed as in vivo, NOD/SCID mice. As to conditions: cecum-injected CRC119 cells with ALDOB knockdown; control vectors 5 out of 5 mice. Here is the method:
as §1, §2

For the next series, the system named is HCT116 cells. Kind of series: cecum injection model, CRC liver metastasis, HCT116 cells with ALDOB knockdown. The following applies: cecum-injected HCT116 cells with ALDOB knockdown; control vectors 5 out of 5 mice. The series is classed as in vivo, NOD/SCID mice. The protocol:
as §1, §2

For a further series, the system named is CRC cells. Kind of series: KHK knockdown in CRC cells transplanted into mouse cecum, liver metastasis. Type of series: in vivo. As to conditions: IVIS luciferase images, quantification of liver metastasis. The protocol:
FIG. 42A-42B illustrates KHK knockdown suppresses liver metastasis. FIG. 42A is a Western blot showing KHK knockdown efficiency. FIG. 42B are representative IVIS luciferase in vivo images, bright field and fluorescent images of livers, and quantification of liver metastasis. Error bars denote SEM of 5 mice per group. p-values were calculated based on one-way ANOVA. ***, p<0.001.
To determine if silencing ketohexokinase (KHK) can suppress liver metastases, KHK was knocked down using shRNA nucleic acid sequence SEQ ID NO:4 (FIG. 42A) in CRC cells and the cells were transplanted into the mouse cecum using the methods described in Example 6 with respect to ALDOB knockdown.

For `O=c1[nH]cc(F)c(=O)[nH]1` [5-Fluorouracil], the “benefit in terms of tumor suppression or survival” value in the series with LV-HCT116 cells is given as “less benefit”.
For the molecule “shRNA2: shRNA against human ALDOB, Sigma Mission lentiviral construct (CCGGGTGGGAATCAAGTTAGACCAACTCGAGTTGGTCTAACTTGATTCCCACTTTTTG)”, the “mice that developed detectable liver metastases” value is 2 out of 5 mice in the series with CRC57 cells, 1 out of 5 mice with CRC119 cells and 2 out of 5 mice in the series on HCT116 cells.
In the case of “SEQ ID NO:4: shRNA against human fructokinase (KHK) (CCGGCCTAAGGAGGACTCGGAGATACTCGAGTATCTCCGAGTCCTCCTTAGGTTTTTG)”, the “metastatic CRC growth in the liver” value in the series on CRC cells is recorded as “significantly suppressed”.
As for `O=C1[O][Pt]2([NH][C@@H]3CCCC[C@H]3[NH]2)[O]C1=O` [Oxaliplatin], the “benefit in terms of tumor suppression or survival” value in the series with LV-HCT116 cells was “less benefit”.
For the molecule “shRNA1: shRNA against human ALDOB, Sigma Mission lentiviral construct (CCGGCTCAGAAATTGCCCAGAGCATCTCGAGATGCTCTGGGCAATTTCTGAGTTTTTG)”, the “mice that developed detectable liver metastases” value in the series with CRC57 cells, in the series on CRC119 cells and in the series with HCT116 cells was 2 out of 5 mice in each case.
